# Experiments:
# [1] = test system: M. tuberculosis, M. Kansasii, M. scrofulaceum, M. avium and M. intracellulare; details: 5 mg/ml; cited from earlier work
# [2] = test system: MAP 303; test: radiometric 14CO2 BACTEC 460 growth culture, MAP 303; assay type: cell-based, Mycobacterium avium subspecies paratuberculosis
# [3] = test system: MAP ATCC 19698; test: radiometric 14CO2 BACTEC 460 growth culture, MAP 19698; assay type: cell-based, Mycobacterium avium subspecies paratuberculosis
# [4] = test system: MAP strain UCF-4; test: radiometric 14CO2 BACTEC 460 growth culture, MAP UCF-4; assay type: cell-based, Mycobacterium avium subspecies paratuberculosis
# [5] = test system: bacteria (including M. phlei) and fungal growth; details: 100-250 μg/ml; cited from earlier work
# [6] = test system: MAP strain Dominic (ATCC 43545); test: radiometric 14CO2 BACTEC 460 growth culture, MAP Dominic; assay type: cell-based, Mycobacterium avium subspecies paratuberculosis
# [7] = test system: eight mycobacterial strains
# [8] = test system: single MAP strain; details: cited from earlier work
# [9] = test system: M. avium ATCC 25291; test: radiometric 14CO2 BACTEC 460 growth culture, M. avium 25291; assay type: cell-based, M. avium subspecies avium
# [10] = test system: M. avium 101; test: radiometric 14CO2 BACTEC 460 growth culture, M. avium 101; assay type: cell-based, M. avium subspecies avium
smiles,measurement,setting,value
"CN1CCCC1c1cccnc1 (stereo not drawn) [Nicotine, nicotine, reference compound]",effect on growth (in words),[1],Enhanced growth
same,percent change from control cGI (% ΔcGI / % −ΔcGI),[2]; 1 μg/ml,7%
same,percent change from control cGI (% ΔcGI / % −ΔcGI),[2]; 4 μg/ml,8%
same,percent change from control cGI (% ΔcGI / % −ΔcGI),[2]; 16 μg/ml,−22%
same,percent change from control cGI (% ΔcGI / % −ΔcGI),[2]; 64 μg/ml,7%
same,percent change from control cGI (% ΔcGI / % −ΔcGI),[3]; 1 μg/ml,−20%
same,percent change from control cGI (% ΔcGI / % −ΔcGI),[3]; 4 μg/ml,−20%
same,percent change from control cGI (% ΔcGI / % −ΔcGI),[3]; 16 μg/ml,−21%
same,percent change from control cGI (% ΔcGI / % −ΔcGI),[3]; 64 μg/ml,−11%
same,percent change from control cGI (% ΔcGI / % −ΔcGI),[4]; 1 μg/ml,−10%
same,percent change from control cGI (% ΔcGI / % −ΔcGI),[4]; 4 μg/ml,−10%
same,percent change from control cGI (% ΔcGI / % −ΔcGI),[4]; 16 μg/ml,−6%
same,percent change from control cGI (% ΔcGI / % −ΔcGI),[4]; 64 μg/ml,9%
same,effect on growth (in words),[5],inhibition
same,percent change from control cGI (% ΔcGI / % −ΔcGI),"[6]; 1 μg/ml, first of the two values (two experiments)",−2%
same,percent change from control cGI (% ΔcGI / % −ΔcGI),"[6]; 1 μg/ml, second of the two values (two experiments)",0%
same,percent change from control cGI (% ΔcGI / % −ΔcGI),"[6]; 4 μg/ml, first of the two values (two experiments)",29%
same,percent change from control cGI (% ΔcGI / % −ΔcGI),"[6]; 4 μg/ml, second of the two values (two experiments)",30%
same,percent change from control cGI (% ΔcGI / % −ΔcGI),"[6]; 16 μg/ml, first of the two values (two experiments)",1%
same,percent change from control cGI (% ΔcGI / % −ΔcGI),"[6]; 16 μg/ml, second of the two values (two experiments)",6%
same,percent change from control cGI (% ΔcGI / % −ΔcGI),"[6]; 64 μg/ml, first of the two values (two experiments)",−12%
same,percent change from control cGI (% ΔcGI / % −ΔcGI),"[6]; 64 μg/ml, second of the two values (two experiments)",7%
same,effect on growth (in words),[7],no effect on growth
same,effect on MAP growth (in words),"[8]; 2 μg/ml, BACTEC 460 with OADC supplementation",Bactericidal inhibition
same,effect on MAP growth in culture (in words),"[8]; solitary MAP strain, pure nicotine",inhibited MAP growth
same,percent change from control cGI (% ΔcGI / % −ΔcGI),[9]; 1 μg/ml,106%
same,percent change from control cGI (% ΔcGI / % −ΔcGI),[9]; 4 μg/ml,63%
same,percent change from control cGI (% ΔcGI / % −ΔcGI),[9]; 16 μg/ml,143%
same,percent change from control cGI (% ΔcGI / % −ΔcGI),[9]; 64 μg/ml,112%
same,percent change from control cGI (% ΔcGI / % −ΔcGI),[10]; 1 μg/ml,55%
same,percent change from control cGI (% ΔcGI / % −ΔcGI),[10]; 4 μg/ml,0%
same,percent change from control cGI (% ΔcGI / % −ΔcGI),[10]; 16 μg/ml,15%
same,percent change from control cGI (% ΔcGI / % −ΔcGI),[10]; 64 μg/ml,5%

# From US8507251B2, “Medium and method for culturing Mycobacterium avium subspecies paratuberculosis” (priority 2009, dated 2013)
